Results on two compounds are retold here after patent US4956344A, “Method for treatment of lesions in the large intestinal epithelium with a tripeptide” (Hafslund Nycomed A/S, priority 1989, dated 1990).

“And” between values parts separate entries of the source, which are not always exact repeats. Equal entries are not always repeated. Square brackets hold non-standard residues; d marks the D form. Peptide text beside a SMILES is read from it. pGlu = O=C1CC[C@@H](C(=O)O)N1

The subject of assay [1] is large intestinal epithelium. The experiment in a line: Mitotic rate (Colcemid-arrested metaphases) in the large intestinal epithelium after i.p. injection. It counts as in vivo, hairless mice. Details: mitotic rate in the large intestinal epithelium, Treated group Mean / Mitotic rate, Treated: unit not given here. To be noted: for cell proliferation in the large intestinal epithelium (mitotic rate), Treated: mean. The procedure: (§1) All in vivo experiments were performed with hairless mice at 0800-0900 AM. The fractions were suspended in distilled water, slightly acidified (pH=6) and injected i.p. at different doses dependent on the purity of the fraction. The controls received solvent only. The pattern of cell proliferation after injecting the peptide was examined by varying the time between treatment and sacrifice.
Two hours before sacrifice (except for the experiments testing tissue specificity in the kidney) all animals received Colcemid 0.15 mg per animal i.p. ^3 HTdR (tritiated thymidine) was injected 30 minutes before sacrifice (30 μCi per animal i.p.). […]
Mitotic rate: After routine dehydration and paraffin embedding, sections were cut at 5 μm and stained with haematoxylin. Colcemid-arrested mitoses per 500 crypt cells were determined in ten longitudinally cut crypts in ileum and colon. Only crypts that were cut strictly longitudinally were accepted, viz., only those where the lumen of the crypt could be followed from the bottom of the gland to the lumen of the gut. No telophases were seen. The number of accumulated metaphases in epidermis Was determined by counting 25 vision fields of interfollicular epidermis (eyepiece 12.5, objective 40) and expressed as mitoses per vision field per 2h.

Assay [2] concerns kidney tubular epithelium. The experiment in a line: Tissue specificity: mitotic rate in kidney cortex after unilateral nephrectomy. The assay is classed as in vivo, hairless mice. As to conditions: proliferation induced by contralateral nephrectomy; treated 18h after surgery, sacrifice at 42h. The procedure:
(§2) To test for possible tissue specificity of the tripeptide the back skin and a defined part of ileum of eight animals were fixed immediately after killing. The mitotic rate (see below) in sections from these tissues was compared with the corresponding values in solvent-treated animals. Unilateral nephrectomy (uNX) was performed in four animals, and the animals were treated with the tripeptide at 18h after surgery. Controls underwent uNX and received solvent only. These animals received Colcemid 3h before sacrifice at 42h. The mitotic rate (number of accumulated metaphases per 1000 cells per 3h) was registered in the outer part of the kidney cortex.

Assay [3] relates to large intestinal epithelium. The experiment in a line: Labelling index (3HTdR-labelled crypt cells) in the large intestinal epithelium after i.p. injection. It counts as in vivo, hairless mice. Also on record: key to Labelling index, Treated: fraction of labelled cells per 500 crypt cells. As to conditions: for Labelling index, Treated: 10^-12 mole per animal. The procedure:
as §1
(§3) Two hours before sacrifice (except for the experiments testing tissue specificity in the kidney) all animals received Colcemid 0.15 mg per animal i.p. ^3 HTdR (tritiated thymidine) was injected 30 minutes before sacrifice (30 μCi per animal i.p.).
Labelling index: Paraffin sections, cut at 5 μm, were dipped in Kodak-NTB emulsion and exposed for 3 weeks at 0°-4° C., developed, and stained with haematoxylin The number of labelled cells were counted per 500 crypt cells in longitudinally cut crypts as described above. Similarly, the number of labelled cells in 40 vision fields of interfollicular epidermis (eyepiece 12.5, objective 40) was determined. A cell was considered labelled when the number of grains was five or more.

A further assay deals with small intestine. Put plainly: Tissue specificity: mitotic rate in small intestine (ileum). The assay is classed as in vivo, hairless mice. To be noted: time and dose levels tested. The procedure: as §2, §3
(§4) Mitotic rate: After routine dehydration and paraffin embedding, sections were cut at 5 μm and stained with haematoxylin. Colcemid-arrested mitoses per 500 crypt cells were determined in ten longitudinally cut crypts in ileum and colon. Only crypts that were cut strictly longitudinally were accepted, viz., only those where the lumen of the crypt could be followed from the bottom of the gland to the lumen of the gut.

A further assay concerns epidermis. Put plainly: Tissue specificity: mitotic rate in epidermis (back skin). It counts as in vivo, hairless mice. To be noted: time and dose levels tested. How it is done: as §2, §3, §4
Assay [4] relates to colon carcinoma cell line HT 29. The experiment in a line: Proliferation of HT 29 cells, incorporation of tritiated thymidine. It counts as cell-based. To be noted: for incorporation of 3HTdR, Treated (Mean): 1 % fetal calf serum, 6 hour-period. How it is done:
Cell culture: HT 29 cells, 20000 cells per well in 96-well tissue culture clusters. Medium: RPMI 1640, 1 % fetal calf serum Concentration of the tripeptide 10^-8 M, lyophilized peptide dissolved in medium.
Assay for proliferation: Incorporation of tritiated thymidine (^3 HTdR) 6 hour-period, ^3 HTdR 1 uCi per well.
The tripeptide was added to the culture on the third day (exponential growth), and the incorporation of tritiated thymidine was measured for 6 hour-periods at 16h, 24h, and 40h after the peptide was added to the wells.

As to `O=C(O)CC[C@H](NC(=O)[C@@H]1CCC(=O)N1)C(=O)N[C@@H](CC(=O)O)C(=O)N[C@@H](CO)C(=O)NCC(=O)O` [pGlu-Glu-Asp-Ser-Gly (OH), reference compound] ([pGlu]EDSG-OH), the “cell proliferation in the large intestinal epithelium” value in assay [1] (10^-12 mole per animal, doses and times tested) is “unchanged”.

For `O=C(O)CNC(=O)[C@H](Cc1c[nH]cn1)NC(=O)[C@@H]1CCC(=O)N1` [pGlu-His-Gly(OH), L-pyroglutamyl-L-histidyl-glycine] ([pGlu]-His-Gly-OH), the “inhibitory effect on cell proliferation in kidney tubular epithelium” value in assay [2] is “No inhibitory effect”. The “number of accumulated metaphases” value in assay [1] (2-4h after injection, 10^-12 mole per animal i.p.) was “significantly reduced”. Also, the “cell proliferation in the large intestinal epithelium (mitotic rate), Treated” value in assay [1] (10^-6 mole per animal i.p.) amounted to 0.047; in assay [1] (10^-9 mole per animal i.p.) it was 0.044; in assay [1] (10^-11 mole per animal i.p., p<0.05) it was 0.021; in assay [1] (10^-12 mole per animal i.p., p<0.05), 0.018; in assay [1] (10^-15 mole per animal i.p.) it was 0.042; in assay [1] (10^-18 mole per animal i.p.) it was 0.035. Also, the “inhibition of mitotic rate in the large intestinal epithelium” value in assay [1] (10^-11 mole per animal) is “smaller, but significant inhibition”. Besides, the “reduction of the number of accumulated metaphases” value in assay [1] (10^-12 mole per animal) is “more than 50%”. In addition, the “mitotic rate in the large intestinal epithelium, Treated group Mean” value in assay [1] (10^-12 mole per animal, synthetic peptide, seven identical experiments in mice, one line each, p<0.05) is 0.018 and 0.021 and 0.026 and 0.043 and 0.025. In addition, the “Mitotic rate, Treated” value in assay [1] (2 h after single i.p. injection, 10^-12 mole per animal) is listed as 0.021; in assay [1] (4 h after single i.p. injection, 10^-12 mole per animal) it was 0.018; in assay [1] (6 h after single i.p. injection, 10^-12 mole per animal), 0.027; in assay [1] (8 h after single i.p. injection, 10^-12 mole per animal), 0.031; in assay [1] (12 h after single i.p. injection, 10^-12 mole per animal), 0.019; in assay [1] (15 h after single i.p. injection, 10^-12 mole per animal), 0.010. Further, the “Mitotic rate, Treated” value is reported as 0.027 in assay [1] (18 h after single i.p. injection, 10^-12 mole per animal) and 0.057 in assay [1] (24 h after single i.p. injection, 10^-12 mole per animal). In assay [1] (approximately 15h after injection, less pronounced than the first, 10^-12 mole per animal), the “mitotic rate, second effect” value is “new Wave of inhibition”. In addition, in assay [1] (doses higher than 10^-11 or lower than 10^-12 mole per animal), the “decrease in cell proliferation in the large intestinal epithelium” value is “no significant decrease”. For the same compound, the “mitotic count in the treated group” value in assay [1] (thereafter, for a period of 6-8h, not formally significant, 10^-12 mole per animal) is reported as “exceeded the control level”. In addition, the “reduced LI, significance” value in assay [3] (15 and 18 h after treatment) is recorded as “not statistically significant”. Further, the “Labelling index, Treated” value amounted to 0.086 in assay [3] (2 h after single i.p. injection); 0.067 in assay [3] (4 h after single i.p. injection); 0.067 in assay [3] (6 h after single i.p. injection); 0.058 in assay [3] (8 h after single i.p. injection); 0.048 in assay [3] (12 h after single i.p. injection); 0.068 in assay [3] (15 h after single i.p. injection). Besides, the “Labelling index, Treated” value is 0.11 in assay [3] (18 h after single i.p. injection) and 0.098 in assay [3] (24 h after single i.p. injection). Moreover, the “labelling index (LI)” value in assay [3] (4h after injection) is given as “pronounced reduction”. Further, the “number of labelled cells, second period” value in assay [3] (approximately 8h after the first decrease) is listed as “second inhibition of the same degree”. The “inhibitory effect on cell proliferation in the small intestine” value with small intestine is given as “No inhibitory effect”. In addition, in the assay with epidermis, the “inhibitory effect on cell proliferation in epidermis” value is recorded as “No inhibitory effect”. In addition, the “incorporation of 3HTdR, Treated (Mean)” value in assay [4] (10^-8 M, 16 h after addition of peptide) turned out to be 12177; in assay [4] (10^-8 M, 24 h after addition of peptide), 9080; in assay [4] (10^-8 M, 40 h after addition of peptide), 12485. In addition, the “incorporation of 3HTdR” value in assay [4] (10^-8 M, 24-30h after the treatment, 1 % serum) is “significant reduction”. In addition, in assay [4] (10^-10 M), the “inhibition of 3HTdR incorporation” value is recorded as “less, but still significant inhibition”. Further, in assay [4] (serum addition increased to 10 &), the “growth of HT 29 cells with increased serum” value is “varied between significant inhibition of growth and no effect”.
